B1: recombinant human Ang1 (rhAng1) (ligand, UniProt Q15389 16-498, looked up)
chain: HIGCSNQRRSPENSGRRYNRIQHGQCAYTFILPEHDGNCRESTTDQYNTNALQRDAPHVEPDFSSQKLQHLEHVMENYTQWLQKLENYIVENMKSEMAQIQQNAVQNHTATMLEIGTSLLSQTAEQTRKLTDVETQVLNQTSRLEIQLLENSLSTYKLEKQLLQQTNEILKIHEKNSLLEHKILEMEGKHKEELDTLKEEKENLQGLVTRQTYIIQELEKQLNRATTNNSVLQKQQLELMDTVHNLVNLCTKEGVLLKGGKREEEKPFRDCADVYQAGFNKSGIYTIYINNMPEPKKVFCNMDVNGGGWTVIQHREDGSLDFQRGWKEYKMGFGNPSGEYWLGNEFIFAITSQRQYMLRIELMDWEGNRAYSQYDRFHIGNEKQNYRLYLKGHTGTAGKQSSLILHGADFSTKDADNDNCMCKCALMLTGGWWFDACGPSNLNGMFYTAGQNHGKLNGIKWHYFKGPSYSLRSTTMMIRPLDF
notes: angiopoietin-1, human, recombinant; also called angiopoietin-1; source: bought: R&D Systems (named for the Boyden chamber experiments)

Tested on: CMPTX-labeled tumor cells across HMVEC-LBl
Assay: modified Boyden chamber, trans-endothelial tumor cell migration, HMVEC-LBl
Assay type: cell-based, human
Conditions: 20 h, Fig1B, C
Experimental: ECs were first treated with Vasculotide (VT), PBS (vehicle/negative control), Ang1 (positive control), PEG-Cys (polyethylene glycol backbone), T7c (non-PEGylated CHHHRHSF peptides), or VT in the presence of 100-fold molar excess of T7c. The concentrations used, 10–20 ng/mL VT and 200–400 ng/mL Ang1, are estimated molar equivalents (0.71–1.43 nM). Thirty minutes later, ECs were stimulated with thrombin, 0.1% BSA (vehicle/negative control), or EDTA (positive control). Another 30mins later, the amount of FITC-dextran diffusion into the lower chambers (A, D) provides a measure of endothelial permeability. CMTPX-labeled tumor cells (TCs) were then dispensed into inserts, and the amount of TC fluorescence emitting from the underside of insert membranes after 20 h (B–C) or 28 h (E) reflects the efficiency of trans-endothelial TC migration. […] Three experiments (twice with HMVEC-LBl and once with HMVEC-DBl) were run with n = 3–5 inserts (independent biological replicates) per group and analyzed by two-sampled unpaired t-tests. […]
Endothelial cells (ECs) were grown on cell culture inserts with uncoated 8-μm-pore PET filter membranes to 100% confluency. […] After 30 min of thrombin stimulation or 4–6 h of TC-CM stimulation, FITC fluorescence (ex/em = 490/520 nm) was measured from a 50 μl sample of the lower chamber media. […]

| Molecule | thrombin-stimulated migration of CMTPX-labeled TCs |
| --- | --- |
| CHHHRHSF [Vasculotide, 4-armed maleimide-functionalized polyethylene glycol (PEG) backbone to link together four cysteine-capped T7 peptides, that is, CHHHRHSF] | trends of reducing thrombin-stimulated migration |
| B1 | counteract thrombin induction of trans-endothelium macromolecular permeability and tumor cell migration |

Reference: paper PMC4459817, “Vasculotide reduces endothelial permeability and tumor cell extravasation in the absence of binding to or agonistic activation of Tie2” (EMBO Molecular Medicine, 2015)
